# According to patent publication US10336757B2, “Treatment of neurodegenerative diseases through inhibition of HSP90” (Sloan-Kettering Institute for Cancer Research, priority 2006, dated 2019):
# Legend:
# [1] = Experimentally determined logP by RP-HPLC; assay type: physicochemical; settings: using RP-HPLC
# Description: Compounds of this type may also be provided with a degradable or cleavable linker, such that monomeric agents are provided in vivo. In this embodiment, the dimeric form need not retain activity or the ability to cross the blood brain barrier, and the nature of the linker therefore is not relevant to activity, only to the ability to form active monomeric species. In general, moderately lipophilic drugs such as PUs cross the BBB by passive diffusion. A good structural understanding for the BBB permeability is still lacking, but several parameters are believed to facilitate such behavior. Lipophilicity was the first of the descriptors to be identified as important for CNS penetration. […] The mean value for ClogP for the marketed CNS drugs is 2.5. […] The rules for molecular weight in CNS drugs have been reviewed, where small molecules may undergo significant passive lipid-mediated transport through the blood brain barrier, when the molecular mass is kept in or below a 400- to 600-Da range (90). PU-DZ8 has a MW of 512. All the QSAR equations emphasize the importance of hydrogen bonding —CNS penetration requires 5 or less hydrogen bond acceptors (91). PU-DZ8 has 4. […] PSA has been used as a predictor for BBB penetration by many investigators (92). In general, drugs aimed at the CNS tend to have lower polar surface areas than other classes (93,94). […]
# [2] = system: p35 and Tau phosphorylation on Ser202; assay: One dose PU-DZ8 in hTau mice, cortical S1 fractions; assay type: in vivo, mouse; settings: 75 mg/kg i.p.
# Procedure: The majority of Tau pathology in hTau mice is located in the cortical brain region. These mice express six isoforms of non-mutant human Tau, but develop AD-like Tau-pathology. Heat-stable fractions (S1) prepared from cortical homogenates of these mice indicate an age-related accumulation of Tau phosphorylated at putative cdk5 sites. […] Aggregate-free Tau (S1) fractions were prepared from the cortical region of these mice and human Tau levels assessed by immunobloting with an antibody specific for 3-repeat domain Tau (RD3). By analogy to experiments on primary neuronal cultures and WT Tau transfected cells, the Hsp90 inhibitor had no effect on soluble WT Tau expression. […] The monoclonal antibody CP13 is commonly used to detect Tau pathology in both early and more advanced stages of Tau aggregate accumulation (41).
# [3] = system: p35 and tau phosphorylation; assay: Five day PU-DZ8 treatment of nine-month old JNPL3 (P301L tau) mice, whole brain; assay type: in vivo
# Description: Transgenic mice: Transgenic mice, JNPL3 line (59) overexpressing mutant human tau (P301L, 4R0N) were used in this study, Mice were heterozygous and on a mixed hybrid genetic background composed of C57BL/DBA2/SW, as published in ref. 59. These mice develop NFTs in the basal telencephalon, diencephalon, brainstem, and spinal cord, with severe pathology accompanied by degeneration in the spinal cord leading to dystonia, paralysis, and death in mice>12 months in age. Nine month-old male JNPL3 mice (n=2) were treated intraperitoneally with PU-DZ8 or vehicle for 5 days. Mice were sacrificed 12 h after last treatment by cervical dislocation under anesthesia.
# To further examine the effect of Hsp90 on tau phosphorylation, we used the JNPL3 line of mice expressing mutant (P301L) tau protein (59). Genetic analyses have linked mutations in the tau gene to FTDP-17 (60, 61). Over 20 distinct pathogenic mutations have been identified, with P301L as the most common mutation in tauophaties (33). […] The tau protein in JNPL3 is predominantly human and is phosphorylated at multiple sites: T181 (AT270), S202/T205 (AT8), T212 (AT100), T231 (AT180), S262, S396/S404, S409 and 5422 (59, 62). […] The degree of p35 expression translated well into alleviation of phosphorylation. […] However, in mice where effects were more prominent and p35 expression declined to approximately 20% as compared to control, a significant effect on tau phosphorylation at S202/T205 and T212/S214 and a 50% reduction on T231 was observed. We could not detect a significant amount of tau phosphorylation at T181, site found to be hyperphosphorylated in PHF, tangles and neurofilaments (65). Again, whole brain expression of cdk5 was not affected (FIG. 3).
smiles,measurement,setting,value
CC(C)NCCCn1c(Cc2cc3c(cc2I)OCO3)nc2c(N)nc(F)nc21 [PU-DZ8],experimentally determined logP,[1],1.53
same,Tau phosphorylation on Ser202 (antibody CP13),[2]; 8 h post-administration,alleviation of Tau phosphorylation
same,p35 levels,[2]; 8 h post-administration,significant time-dependent reduction
same,soluble WT Tau expression,[2]; cortical S1,no effect
same,whole brain expression of cdk5,[3]; 5 days i.p.,not affected
same,compound levels in brain,"[3]; 5 days i.p., 12 h after last treatment",Pharmacologically relevant levels
same,p35 expression as compared to control,"[3]; 5 days i.p., mice where effects were more prominent",approximately 20%
same,reduction in p35 levels,"[3]; 5 days i.p., whole brain",50%
same,tau phosphorylation at putative cdk5 sites S202/T205 and T212,"[3]; 5 days i.p., whole brain",significant amelioration
same,phosphorylation on T212/S214 (Ab AT-100),[3]; at 50% reduction in p35 levels,almost completely
same,tau phosphorylated at T231 (Ab AT-180),[3]; at a reduction by 50% in p35 expression,No significant effect
same,reduction of tau phosphorylation on T231,[3]; mice where p35 declined to approximately 20% of control,50%
